# From patent publication US12145947B2, “Pyrimidine based modulators and uses thereof” (Quanta Therapeutics, Inc., priority 2022, dated 2024)
# Target: T1, GST-tagged KRAS-G12D (2-169) (Homo sapiens, UniProt P01116, G12D)
# T1 construct: GST-tagged KRAS-G12D (2-169, Reaction Biology, MSC-11-539); purchased Reaction Biology MSC-11-539 (KRAS G12D); MSC-11-502 (SOS1cat)
# Test: Nucleotide exchange assay (NEA), SOS-mediated, HTRF, KRAS G12D
# Format: biochemical
# Conditions: Table 4; IC50 extracted at 30 min
# Outline: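 GST-KRAS-G12D (2-169, 5 nM final) with Tb-anti-GST donor was preincubated with compound 1 h at RT (pH 7.3 HEPES buffer, MgCl2, DTT), then SOScat (564-1049, 20 nM) and GTP-DY-647P1 (150 nM) were added. HTRF was read at RT; % inhibition vs DMSO/no-SOS blank, 4-parameter IC50 taken at 30 min.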
# T1 sequence (P01116 2-169 isoform P01116-2 G12D): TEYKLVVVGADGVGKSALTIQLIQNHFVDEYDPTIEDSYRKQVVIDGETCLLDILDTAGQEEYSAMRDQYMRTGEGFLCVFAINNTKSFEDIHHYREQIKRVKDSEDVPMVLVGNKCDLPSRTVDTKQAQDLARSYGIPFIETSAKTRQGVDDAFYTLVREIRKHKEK
row,Compound,IC50
1,"CN(C)CC1(COc2nc(N3C[C@H]4CC[C@@H](C3)N4)c(C#N)c(N3CC4(CCc5sc(N)c(C#N)c54)C3)n2)CC1(F)F (mixture of isomers) [Compound 74, 2-amino-1′-[5-cyano-6-(3,8-diazabicyclo[3.2.1]octan-3-yl)-2-[[1-[(dimethylamino)methyl]-2,2-difluoro-cyclopropyl]methoxy]pyrimidin-4-yl]spiro[5,6-dihydrocyclopenta[b]thiophene-4,3′-azetidine]-3-carbonitrile]",10 to 100 nM
2,"C[C@@]1(O)CCCN(c2nc(OC[C@@]34CCCN3C[C@H](F)C4)nc(N3CC4(CCc5sc(N)c(C#N)c54)C3)c2C#N)C1 [Compound 27, 2-amino-1′-[5-cyano-2-[[(2R,8S)-2-fluoro-1,2,3,5,6,7-hexahydropyrrolizin-8-yl]methoxy]-6-[(3R)-3-hydroxy-3-methyl-1-piperidyl]pyrimidin-4-yl]spiro[5,6-dihydrocyclopenta[b]thiophene-4,3′-azetidine]-3-carbonitrile]",10 to 100 nM
3,"N#Cc1c(N2CCCC(O)CC2)nc(OC[C@@]23CCCN2C[C@H](F)C3)nc1N1CC2(CCc3sc(N)c(C#N)c32)C1 (stereo partly drawn) [Compound 40, 2-amino-1′-[5-cyano-6-(4-hydroxyazepan-1-yl)-2-[[(2R,8S)-2-fluoro-1,2,3,5,6,7-hexahydropyrrolizin-8-yl]methoxy]pyrimidin-4-yl]spiro[5,6-dihydrocyclopenta[b]thiophene-4,3′-azetidine]-3-carbonitrile]",10 to 100 nM
4,"N#Cc1c(N2CC3COCC(C2)N3)nc(OC[C@]23CCCN2C[C@@H](F)C3)nc1N1CC2(CCc3sc(N)c(C#N)c32)C1 [Compound 43, 2-amino-1′-[5-cyano-2-[[(2S,8R)-2-fluoro-1,2,3,5,6,7-hexahydropyrrolizin-8-yl]methoxy]-6-(3-oxa-7,9-diazabicyclo[3.3.1]nonan-7-yl)pyrimidin-4-yl]spiro[5,6-dihydrocyclopenta[b]thiophene-4,3′-azetidine]-3-carbonitrile]",10 to 100 nM
5,"N#Cc1c(N2CCCC(=O)CC2)nc(OC[C@@]23CCCN2C[C@H](F)C3)nc1N1CC2(CCc3sc(N)c(C#N)c32)C1 [Compound 49, 2-amino-1′-[5-cyano-2-[[(2R,8S)-2-fluoro-1,2,3,5,6,7-hexahydropyrrolizin-8-yl]methoxy]-6-(4-oxoazepan-1-yl)pyrimidin-4-yl]spiro[5,6-dihydrocyclopenta[b]thiophene-4,3′-azetidine]-3-carbonitrile]",10 to 100 nM
6,"N#Cc1c(N2C[C@H]3CC[C@@H](C2)N3)nc(OCC2(CN3CC[S+]([O-])CC3)CC2)nc1N1CC2(CCc3sc(N)c(C#N)c32)C1 [Compound 71, 2-amino-1′-[5-cyano-6-[(1R,5S)-3,8-diazabicyclo[3.2.1]octan-3-yl]-2-[[1-[(1-oxo-1,4-thiazinan-4-yl)methyl]cyclopropyl]methoxy]pyrimidin-4-yl]spiro[5,6-dihydrocyclopenta[b]thiophene-4,3′-azetidine]-3-carbonitrile]",< 10 nM
7,"N#Cc1c(N2C[C@H]3CC[C@@H](C2)N3)nc(OCC2(CN3CCOCC3)CC2)nc1N1CC2(CSc3sc(N)c(C#N)c32)C1 [Compound 73, 5-amino-1′-[5-cyano-2-[[1-(morpholinomethyl)cyclopropyl]methoxy]-6-[(1R,5S)-3,8-diazabicyclo[3.2.1]octan-3-yl]pyrimidin-4-yl]spiro[2H-thieno[2,3-b]thiophene-3,3′-azetidine]-4-carbonitrile]",< 10 nM

# Same assay, conditions: Table 4; IC50 extracted at 30 min; listed as 74.2
row,Compound,IC50
1,"CN(C)CC1(COc2nc(N3CC4CCC(C3)N4)c(C#N)c(N3CC4(CCc5sc(N)c(C#N)c54)C3)n2)CC1(F)F (centres unmarked) [Compound 74B, 2-amino-1′-[5-cyano-6-(3,8-diazabicyclo[3.2.1]octan-3-yl)-2-[[(1*)-1-[(dimethylamino)methyl]-2,2-difluoro-cyclopropyl]methoxy]pyrimidin-4-yl]spiro[5,6-dihydrocyclopenta[b]thiophene-4,3′-azetidine]-3-carbonitrile]",10 to 100 nM
